# pIC50: −log10 of the molar value.
# Target: T1, LINE1 reverse transcriptase (Homo sapiens, UniProt O00370)
# T1 construct: expressed in transfected cells; host or cells: HeLa Tet-On 3G (Takara, cat no 631183)
# Experiment: Stable artificial-intron Cis LINE1 reporter assay (HeLa Tet-On 3G, Firefly luciferase)
# Format: cell-based
# Details: HeLa L1 artificial-intron reporter cells, doxycycline 500 ng/mL, 72 h, class symbols
# Protocol: Exemplary compounds, were tested for the ability to inhibit LINE1 reverse transcriptase using a stable artificial-intron Cis LINE1 reporter assay. Assay procedures and results are described below.
# A stable HeLa Tet-On 3G (Takara, cat no 631183) cell line expressing a bi-directional inducible LINE1 construct was generated as described in Xie, Y. et al. “Cell division promotes efficient retrotransposition in a stable L1 reporter cell line,” Mobile DNA (2013) 4:10. Single cell clones were screened for high Luciferase expression and the highest expression Firefly expressing clone was chosen for compound testing.
# Test compounds were serially diluted in DMSO and spotted in 96-well plates. Subsequently, the HeLa Li artificial-intron reporter cells were plated into the compound-containing wells (8,000 cells/well), and the cells were induced for reporter expression with doxycycline (Sigma-Aldrich cat #D9891) at a final concentration of 500 ng/mL. Luminescence was measured 72 h after plating using the Dual-Glo Luciferase Assay System (Promega cat #E2940) following the manufacturer's instructions. The Firefly Luciferase activity was used to report LINE1 activity.
# T1 sequence (O00370 whole entry, looked up): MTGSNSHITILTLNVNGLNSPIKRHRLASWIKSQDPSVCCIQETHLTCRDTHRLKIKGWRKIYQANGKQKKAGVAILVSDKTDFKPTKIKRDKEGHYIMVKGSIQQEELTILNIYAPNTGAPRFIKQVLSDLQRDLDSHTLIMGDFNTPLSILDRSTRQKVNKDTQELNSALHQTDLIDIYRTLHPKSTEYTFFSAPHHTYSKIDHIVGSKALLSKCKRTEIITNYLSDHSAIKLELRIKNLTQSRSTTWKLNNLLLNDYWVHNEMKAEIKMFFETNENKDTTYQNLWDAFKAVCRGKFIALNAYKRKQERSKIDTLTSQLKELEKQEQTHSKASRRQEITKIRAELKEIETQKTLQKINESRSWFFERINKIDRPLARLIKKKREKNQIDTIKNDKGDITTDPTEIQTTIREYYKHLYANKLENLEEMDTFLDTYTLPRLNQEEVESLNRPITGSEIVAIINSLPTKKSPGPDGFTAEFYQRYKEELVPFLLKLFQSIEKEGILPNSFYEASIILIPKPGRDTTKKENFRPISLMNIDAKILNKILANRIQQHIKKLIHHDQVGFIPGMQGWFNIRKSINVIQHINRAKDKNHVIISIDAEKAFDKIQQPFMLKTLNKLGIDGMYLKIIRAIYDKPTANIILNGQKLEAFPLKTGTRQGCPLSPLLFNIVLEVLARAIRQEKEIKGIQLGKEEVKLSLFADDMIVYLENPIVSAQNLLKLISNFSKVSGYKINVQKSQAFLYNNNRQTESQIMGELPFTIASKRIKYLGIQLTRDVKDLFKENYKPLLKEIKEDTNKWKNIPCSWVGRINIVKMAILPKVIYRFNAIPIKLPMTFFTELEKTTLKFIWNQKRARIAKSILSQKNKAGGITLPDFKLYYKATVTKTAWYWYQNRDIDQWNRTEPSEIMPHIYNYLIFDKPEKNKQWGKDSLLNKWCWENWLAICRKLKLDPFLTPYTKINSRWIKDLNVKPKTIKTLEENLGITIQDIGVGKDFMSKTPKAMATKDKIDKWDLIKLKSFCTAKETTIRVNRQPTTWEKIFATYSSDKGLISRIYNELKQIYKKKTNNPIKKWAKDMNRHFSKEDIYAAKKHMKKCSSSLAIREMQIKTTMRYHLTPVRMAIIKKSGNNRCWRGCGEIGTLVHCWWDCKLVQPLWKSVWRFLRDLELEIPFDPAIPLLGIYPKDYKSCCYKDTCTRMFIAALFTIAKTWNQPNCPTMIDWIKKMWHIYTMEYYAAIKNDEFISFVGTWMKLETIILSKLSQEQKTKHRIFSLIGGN
row,Structure (SMILES),pIC50
1,"C=C[C@]1(CO)O[C@@H](n2cnc3c(N)nc(F)nc32)[C@@H](F)[C@@H]1O [Compound 80, (2R,3R,4S,5R)-5-(6-amino-2-fluoropurin-9-yl)-2-ethenyl-4-fluoro-2-(hydroxymethyl)oxolan-3-ol]",6.60 to 7.00
2,"CC[C@]1(CO)O[C@@H](n2cnc3c(N)nc(F)nc32)[C@@H](F)[C@@H]1O [Compound 81, (2R,3R,4S,5R)-5-(6-amino-2-fluoropurin-9-yl)-2-ethyl-4-fluoro-2-(hydroxymethyl)oxolan-3-ol]",6.60 to 7.00
3,"Nc1nc2c(ncn2[C@@H]2O[C@@](CO)(CF)[C@@H](O)[C@@H]2F)c(=O)[nH]1 [Compound 83, 2-amino-9-((2R,3S,4R,5R)-3-fluoro-5-(fluoromethyl)-4-hydroxy-5-(hydroxymethyl)tetrahydrofuran-2-yl)-1,9-dihydro-6H-purin-6-one]",< 6.00
4,Nc1nc(F)nc2c1ncn2[C@@H]1O[C@@](CO)(CF)[C@@H](O)[C@@H]1F [Compound 84],< 6.00
5,"[N-]=[N+]=N[C@]1(CO)O[C@@H](c2ccc3c(N)ncnn23)C[C@@H]1O [Compound 92, (2R,3S,5R)-5-(4-aminopyrrolo[2,1-f][1,2,4]triazin-7-yl)-2-azido-2-(hydroxymethyl)tetrahydrofuran-3-ol]",≥ 7.30
6,"C[C@]1(CO)O[C@@H](n2ccc(N)nc2=O)C[C@@H]1O [Compound 106, 4-amino-1-((2R,4S,5R)-4-hydroxy-5-(hydroxymethyl)-5-methyltetrahydrofuran-2-yl)pyrimidin-2(1H)-one]",≥ 7.30
7,"[N-]=[N+]=N[C@]1(CO)O[C@@H](n2cnc3c(=O)[nH]c(N)nc32)C[C@@H]1O [Compound 108, 2-amino-9-((2R,4S,5R)-5-azido-4-hydroxy-5-(hydroxymethyl)tetrahydrofuran-2-yl)-1,9-dihydro-6H-purin-6-one]",7.00 to 7.30
8,"C=C[C@]1(CO)O[C@@H](n2cnc3c(N)nc(F)nc32)C[C@@H]1O [Compound 109, (2R,3S,5R)-5-(6-amino-2-fluoro-9H-purin-9-yl)-2-(hydroxymethyl)-2-vinyltetrahydrofuran-3-ol]",≥ 7.30
9,"Nc1ccn([C@H]2C[C@H](O)[C@](CO)(C(F)F)O2)c(=O)n1 [Compound 110, 4-amino-1-((2R,4S,5R)-5-(difluoromethyl)-4-hydroxy-5-(hydroxymethyl)-tetrahydrofuran-2-yl)pyrimidin-2(1H)-one]",6.00 to 6.60
10,"Nc1ccn([C@@H]2O[C@H](CO)[C@@H](O)C2(F)F)c(=O)n1 [Compound 111, 4-amino-1-((2R,4R,5R)-3,3-difluoro-4-hydroxy-5-(hydroxymethyl)tetrahydrofuran-2-yl)pyrimidin-2(1H)-one]",≥ 7.30
11,"Nc1ccn([C@@H]2O[C@@](CO)(CCl)[C@@H](O)[C@@H]2O)c(=O)n1 [Compound 114, 4-amino-1-((2R,3S,4S,5R)-5-(chloromethyl)-3,4-dihydroxy-5-(hydroxymethyl)tetrahydrofuran-2-yl)pyrimidin-2(1H)-one]",6.60 to 7.00

# The remaining lines, values ahead:
row,pIC50,Structure (SMILES)
1,≥ 7.30,"C=C[C@]1(CO)O[C@@H](n2cc(F)c(N)nc2=O)C[C@@H]1O [Compound 74, 4-amino-5-fluoro-1-((2R,4S,5R)-4-hydroxy-5-(hydroxymethyl)-5-vinyltetrahydrofuran-2-yl)pyrimidin-2(1H)-one]"
2,6.60 to 7.00,"C=C[C@]1(CO)O[C@@H](n2cc(F)c(N)nc2=O)[C@@H](O)[C@@H]1O [Compound 75, 4-amino-1-((2R,3S,4S,5R)-3,4-dihydroxy-5-(hydroxymethyl)-5-vinyltetrahydrofuran-2-yl)-5-fluoropyrimidin-2(1H)-one]"
3,≥ 7.30,"C=C[C@]1(CO)O[C@@H](n2cc(F)c(N)nc2=O)[C@@H](F)[C@@H]1O [Compound 76, 4-amino-1-[(2R,3S,4R,5R)-5-ethenyl-3-fluoro-4-hydroxy-5-(hydroxymethyl)oxolan-2-yl]-5-fluoropyrimidin-2-one]"
4,≥ 7.30,"CC[C@]1(CO)O[C@@H](n2cc(F)c(N)nc2=O)[C@@H](F)[C@@H]1O [Compound 77, 4-amino-1-[(2R,3S,4R,5R)-5-ethyl-3-fluoro-4-hydroxy-5-(hydroxymethyl)oxolan-2-yl]-5-fluoropyrimidin-2-one]"
5,7.00 to 7.30,"CC[C@]1(CO)O[C@@H](n2cc(F)c(N)nc2=O)[C@@H](O)[C@@H]1O [Compound 78, 4-amino-1-((2R,3S,4S,5R)-5-ethyl-3,4-dihydroxy-5-(hydroxymethyl)tetrahydrofuran-2-yl)-5-fluoropyrimidin-2(1H)-one]"
6,≥ 7.30,"CC[C@]1(CO)O[C@@H](n2cc(F)c(N)nc2=O)C[C@@H]1O [Compound 82, 4-amino-1-((2R,4S,5R)-5-ethyl-4-hydroxy-5-(hydroxymethyl)tetrahydrofuran-2-yl)-5-fluoropyrimidin-2(1H)-one]"
7,7.00 to 7.30,"Nc1nc(=O)n([C@@H]2O[C@@](CO)(CF)[C@@H](O)[C@@H]2F)cc1F [Compound 85, 4-amino-5-fluoro-1-[(2R,3S,4R,5R)-3-fluoro-5-(fluoromethyl)-4-hydroxy-5-(hydroxymethyl)oxolan-2-yl] pyrimidin-2-one]"
8,≥ 7.30,"Nc1nc(=O)n([C@@H]2O[C@@](CO)(CBr)[C@@H](O)[C@@H]2F)cc1F [Compound 86, 4-amino-1-[(2R,3S,4R,5R)-5-(bromomethyl)-3-fluoro-4-hydroxy-5-(hydroxymethyl)oxolan-2-yl]-5-fluoropyrimidin-2-one]"
9,≥ 7.30,"Nc1nc(=O)n([C@H]2C[C@H](O)[C@](CO)(CBr)O2)cc1F [Compound 88, 4-amino-1-((2R,4S,5R)-5-(bromomethyl)-4-hydroxy-5-(hydroxymethyl)tetrahydrofuran-2-yl)-5-fluoropyrimidin-2(1H)-one]"
10,≥ 7.30,"C#C[C@]1(CO)O[C@@H](n2cc(F)c(N)nc2=O)C[C@@H]1O [Compound 107, 4-amino-1-((2R,4S,5R)-5-ethynyl-4-hydroxy-5-(hydroxymethyl)tetrahydrofuran-2-yl)-5-fluoropyrimidin-2(1H)-one]"
11,≥ 7.30,"C#C[C@]1(CO)O[C@@H](n2cc(F)c(N)nc2=O)[C@@H](F)[C@@H]1O [Compound 112, 4-amino-1-((2R,3S,4R,5R)-5-ethynyl-3-fluoro-4-hydroxy-5-(hydroxymethyl)tetrahydrofuran-2-yl)-5-fluoropyrimidin-2(1H)-one]"
12,7.00 to 7.30,"Nc1ccn([C@@H]2O[C@@](CO)(CF)[C@@H](O)[C@@H]2F)c(=O)n1 [Compound 113, 4-amino-1-((2R,3S,4R,5R)-3-fluoro-5-(fluoromethyl)-4-hydroxy-5-(hydroxymethyl)-tetrahydrofuran-2-yl)pyrimidin-2(1H)-one]"

# Same assay, conditions: HeLa L1 artificial-intron reporter cells, doxycycline 500 ng/mL, 72 h, numeric bounds
row,pIC50,Structure (SMILES)
1,< 4.52,"Nc1ncnn2c([C@H]3C[C@H](O)[C@](CO)(CF)O3)ccc12 [Compound 79, (2R,3S,5R)-5-(4-aminopyrrolo[2,1-f] [1,2,4]triazin-7-yl)-2-(fluoromethyl)-2-(hydroxymethyl)tetrahydrofuran-3-ol]"
2,< 4.52,"Nc1nc2c(ncn2[C@@H]2O[C@@](CO)(CCl)[C@@H](O)[C@@H]2O)c(=O)[nH]1 [Compound 94, 2-amino-9-[(2R,3S,4S,5R)-5-(chloromethyl)-3,4-dihydroxy-5-(hydroxymethyl)oxolan-2-yl]-1H-purin-6-one]"
3,< 4.52,"Nc1nc(=O)n([C@@H]2O[C@@](CO)(C(F)(F)F)[C@@H](O)[C@@H]2O)cc1F [Compound 95, 4-amino-1-((2R,3S,4S,5R)-3,4-dihydroxy-5-(hydroxymethyl)-5-(trifluoromethyl)tetrahydrofuran-2-yl)-5-fluoropyrimidin-2(1H)-one]"
